Experimental data as given in ChEMBL document CHEMBL1123495, “Assessment of a potential dopaminergic prodrug moiety in several ring systems” (1986).
Activity calls are given as the source filed them. No cut-off for these calls is given here.

Key:
Rattus norvegicus [1] = assay: Compound was tested for induction of contralateral turning behavior with unilateral lesions of the nigrostriatal pathway in rat, activity expressed as potency ratio to apomorphine; Inactive in inducing turns up to 12.1 umol/kg; type: functional, organism-based
Felis catus [2] = assay: Compound was tested for inhibition of chronotropic stimulation response on the cardioaccelerator nerve in cat at the concentration > 3.0 uM/kg; Inactive; type: functional, organism-based
Dopamine receptor = conditions: Felis catus
Rattus norvegicus [3] = species: Rattus norvegicus; assay: Compound was tested for induction of contralateral turning behavior with unilateral lesions of the nigrostriatal pathway in rat, activity expressed as potency ratio to apomorphine.; type: functional
Rattus norvegicus [4] = species: Rattus norvegicus; assay: Compound was tested for induction of contralateral turning behavior with unilateral lesions of the nigrostriatal pathway in rat by haloperidol; Significant at p< 0.05; type: functional, organism-based
Felis catus [5] = species: Felis catus; assay: Compound was tested for inhibition of chronotropic stimulation response on the cardioaccelerator nerve in cat; type: functional; conditions: read-out: ID50 (the source's name)
Rattus norvegicus [6] = assay: Compound was tested for induction of contralateral turning behavior with unilateral lesions of the nigrostriatal pathway in rat, activity expressed as potency ratio to apomorphine; Inactive up to 11.7 umol/kg; type: functional, organism-based
Rattus norvegicus [7] = species: Rattus norvegicus; assay: Compound was tested for induction of contralateral turning behavior with unilateral lesions of the nigrostriatal pathway in rat by haloperidol; NS= Not significant; type: functional, organism-based
Rattus norvegicus [8] = assay: Compound was tested for induction of contralateral turning behavior with unilateral lesions of the nigrostriatal pathway in rat, activity expressed as potency ratio to apomorphine; Inactive up to 13.3 umol/kg; type: functional, organism-based
Rattus norvegicus [9] = assay: Compound was tested for induction of contralateral turning behavior with unilateral lesions of the nigrostriatal pathway in rat, activity expressed as potency ratio to apomorphine; Inactive up to 12.19 umol/kg; type: functional, organism-based
Rattus norvegicus [10] = assay: Compound was tested for induction of contralateral turning behavior with unilateral lesions of the nigrostriatal pathway in rat, activity expressed as potency ratio to apomorphine; Inactive up to 16.9 umol/kg; type: functional, organism-based
Rattus norvegicus [11] = assay: Compound was tested for induction of contralateral turning behavior with unilateral lesions of the nigrostriatal pathway in rat, activity expressed as potency ratio to apomorphine; Inactive up to 12.3 umol/kg; type: functional, organism-based
Rattus norvegicus [12] = assay: Compound was tested for induction of contralateral turning behavior with unilateral lesions of the nigrostriatal pathway in rat, activity expressed as potency ratio to apomorphine; Inactive up to 13.9 umol/kg; type: functional, organism-based
Felis catus [13] = species: Felis catus; assay: Compound was tested for antagonism of apomorphine induced inhibition of the tachycardia produced by stimulation of the right cardioaccelerator nerve in cat; type: functional

Row | SMILES | ID50 (Felis catus [2]) | AD50 (Dopamine receptor) | Potency ratio (Rattus norvegicus [3]) | ED50 (Felis catus [5]) [µmol/kg] | other results
1 | CCCN(CCC)C1CCc2c(ccc(C(=O)O)c2O)C1 (centres undefined) | inactive | inactive | – | – | Potency ratio (Rattus norvegicus [1]): inactive
2 | CCCN1CCC[C@H]2c3ccc(CO)c(O)c3CC[C@@H]21 | inactive | inactive | 0.07 | – | Antagonism (Rattus norvegicus [4]): Active
3 | CCCN(CCC)C1Cc2ccc(C)c(O)c2C1 (centres undefined) | – | inactive | 0.3 | 0.89 | Antagonism (Rattus norvegicus [4]): Active
4 | CCCN(CCC)C1Cc2ccc(C=O)c(O)c2C1 (centres undefined) | inactive | inactive | – | – | Potency ratio (Rattus norvegicus [6]): inactive
5 | CCCN1CCC[C@H]2c3ccc(C=O)c(O)c3CC[C@@H]21 | – | inactive | 0.38 | 1.81 | Antagonism (Rattus norvegicus [7]): inactive
6 | CCCN(CCC)C1CCc2c(ccc(CO)c2O)C1 (centres undefined) | – | inactive | 0.93 | 0.03 | –
7 | CCCN(CCC)CCc1ccc(C=O)c(O)c1 | inactive | inactive | – | – | Potency ratio (Rattus norvegicus [8]): inactive; Antagonism (Rattus norvegicus [4]): Active
8 | CCCN(CCC)C1Cc2ccc(C(=O)O)c(O)c2C1 (centres undefined) | – | inactive | – | 3.18 | –
9 | CCCN(CCC)C1CCc2c(ccc(C)c2O)C1 (centres undefined) | – | inactive | 0.39 | 0.06 | –
10 | CCCN(CCC)CCc1ccc(CO)c(O)c1 | inactive | inactive | – | – | Potency ratio (Rattus norvegicus [9]): inactive
11 | CCCN(CCC)C1Cc2ccc(CO)c(O)c2C1 (centres undefined) | – | inactive | 0.33 | 0.12 | Antagonism (Rattus norvegicus [4]): Active
12 | CN1CCc2cccc3c2[C@H]1Cc1ccc(O)c(O)c1-3 [APOMORPHINE] | – | – | – | 0.022 | Antagonism (Rattus norvegicus [4]): Active
13 | CCCN(CCC)C1CCc2c(ccc(C=O)c2O)C1 (centres undefined) | – | inactive | 0.07 | 0.13 | –
14 | CCCN(CCC)CCc1ccc(C)c(O)c1 | inactive | inactive | – | – | Potency ratio (Rattus norvegicus [10]): inactive
15 | CCCN1CCC[C@H]2c3ccc(C(=O)O)c(O)c3CC[C@@H]21 | inactive | inactive | – | – | Potency ratio (Rattus norvegicus [11]): inactive
16 | CCCN(CCC)CCc1ccc(C(=O)O)c(O)c1 | inactive | inactive | – | – | Potency ratio (Rattus norvegicus [12]): inactive
17 | CCCN1CCC[C@H]2c3ccc(C)c(O)c3CC[C@@H]21 | inactive | – | 0.68 | – | AD50 (Felis catus [13]): 0.44 µM/kg
